Measured values as given in patent US6689754B1, “Heterocyclic glycyl β-alanine derivatives” (G. D. Searle & Co., priority 1998, dated 2004).
Counter-ions that a name gives are not always drawn.

How the values were obtained:
[1] = target: T1, Human fibrinogen receptor IIb/IIIa (Homo sapiens, UniProt P05106+P08514); test: Purified IIb/IIIa receptor assay: solid phase receptor assay, competition with biotinylated vitronectin; format: binding; conditions: 1 nM biotinylated vitronectin
T1 construct: Human fibrinogen receptor ([…]) was purified from outdated platelets; from tissue; host or cells: outdated human platelets
Source text: Purified IIb/IIIa Receptor Assay
Human fibrinogen receptor ([…]) was purified from outdated platelets. (Pytela, R., Pierschbacher, M. D., Argraves, S., Suzuki, S., and Rouslahti, E. “Arginine-Glycine-Aspartic acid adhesion receptors”, Methods in Enzymology 144(1987):475-489.) Human vitronectin was purified from fresh frozen plasma as described in Yatohgo, T., Izumi, M., Kashiwagi, H., and Hayashi, M., “Novel purification of vitronectin from human plasma by heparin affinity chromatography,” Cell Structure and Function 13(1988):281-292. Biotinylated human vitronectin was prepared by coupling NHS-biotin from Pierce Chemical Company (Rockford, Ill.) to purified vitronectin as previously described. (Charo, I. F., Nannizzi, L., Phillips, D. R., Hsu, M. A., Scarborough, R. M., “Inhibition of fibrinogen binding to GP IIb/IIIa by a GP IIIa peptide”, J. Biol. Chem. 266(3)(1991): 1415-1421.) Assay buffer, OPD substrate tablets, and RIA grade BSA were obtained from Sigma (St. Louis, Mo.). Anti-biotin antibody was obtained from Calbiochem (La Jolla, Calif.). Linbro microtiter plates were obtained from Flow Labs (McLean, Vs.). ADP reagent was obtained from Sigma (St. Louis, Mo.).
This assay is essentially the same reported in Niiya, K., Hodson, E., Bader, R., Byers-Ward, V. Koziol, J. A., Plow, E. F. and Ruggeri, Z. M., “Increased surface expression of the membrane glycoprotein IIb/IIIa complex induced by platelet activation: Relationships to the binding of fibrinogen and platelet aggregation”, Blood 70(1987):475-483. The purified human fibrinogen receptor ([…]) was diluted from stock solutions to 1.0 μg/mL in Tris-buffered saline containing 1.0 mM Ca^++, Mg^++, and Mn^++, pH 7.4 (TBS^+++). The diluted receptor was immediately transferred to Linbro microtiter plates at 100 μL/well (100 ng receptor/well). The plates were sealed and incubated overnight at 4° C. to allow the receptor to bind to the wells. All remaining Steps were at room temperature. The assay plates were emptied and 200 μL of 1% RIA grade BSA in TBS^+++ (TBS^+++/BSA) were added to block exposed plastic surfaces. Following a 2 hour incubation, the assay plates were washed with TBS^+++ using a 96 well plate washer. Logarithmic serial dilution of the test compound and controls were made starting at a stock concentration of 2 mM and using 2 nM biotinylated vitronectin in TBS^+++/BSA as the diluent. This premixing of labeled ligand with test (or control) ligand, and subsequent transfer of 50 μL aliquots to the assay plate was carried out with a CETUS Propette robot; the final concentration of the labeled ligand was 1 nM and the highest concentration of test compound was 1.0×10^−4 M. The competition occurred for two hours after which all wells were washed with a plate washer as before. Affinity purified horseradish peroxidase labeled goat anti-biotin antibody was diluted 1:3000 in TBS^+++/BSA and 125 μL were added to each well. After 30 minutes, the plates were washed and incubated with […] substrate in 100 mM/L citrate buffer, pH 5.0. The plate was read with a microtiter plate reader at a wavelength of 450 nm and when the maximum-binding control wells reached an absorbance of about 1.0, the final A450 were recorded for analysis. The data were analyzed using a macro written for use with the EXCELJ spreadsheet program. The mean, standard deviation, and % CV were determined for duplicate concentrations. The mean A450 values were normalized to the mean of four maximum-binding controls (no competitor added)(B-MAX). The normalized values were subjected to a four parameter curve fit algorithm, [Robard et al., Int. Atomic Energy Agency.

[2] = target: T2, Human vitronectin receptor (αvβ3) (Homo sapiens, UniProt P05106+P06756); test: Vitronectin adhesion assay: solid phase receptor assay, competition with biotinylated vitronectin; format: binding; conditions: purified human vitronectin receptor; 1 nM biotinylated vitronectin
T2 construct: Human vitronectin receptor (αvβ3) was purified from human placenta; from tissue; host or cells: human placenta
Method: Vitronectin Adhesion Assay
Human vitronectin receptor (αvβ3) was purified from human placenta as previously described [Pytela et al., Methods in Enzymology, 144:475-489 (1987)]. Human vitronectin was purified from fresh frozen plasma as previously described [Yatohgo et al., Cell Structure and Function, 13:281-292 (1988)]. Biotinylated human vitronectin was prepared by coupling NHS-biotin from Pierce Chemical Company (Rockford, Ill.) to purified vitronectin as previously described [Charo et al., J. Biol. Chem., 266(3):1415-1421 (1991)]. Assay buffer, OPD substrate tablets, and RIA grade BSA were obtained from Sigma (St. Louis, Mo.). Anti-biotin antibody was obtained from Calbiochem (La Jolla, Calif.). Linbro microtiter plates were obtained from Flow Labs (McLean, Va.). ADP reagent was obtained from Sigma (St. Louis, Mo.).
This assay was essentially the same as previously reported [Niiya et al., Blood, 70:475-483 (1987)]. The purified human vitronectin receptor (αvβ3) was diluted from stock solutions to 1.0 μg/mL in Tris-buffered saline containing 1.0 mM Ca^++, Mg^++, and Mn^++, pH 7.4 (TBS^+++). The diluted receptor was immediately transferred to Linbro microtiter plates at 100 μL/well (100 ng receptor/well). The plates were sealed and incubated overnight at 4° C. to allow the receptor to bind to the wells. All remaining steps were at room temperature. The assay plates were emptied and 200 μL of 1% RIA grade BSA in TBS^+++ (TBS^+++/BSA) were added to block exposed plastic surfaces. Following a 2 hour incubation, the assay plates were washed with TBS^+++ using a 96 well plate washer. Logarithmic serial dilution of the test compound and controls were made starting at a stock concentration of 2 mM and using 2 nM biotinylated vitronectin in TBS^+++/BSA as the diluent. This premixing of labeled ligand with test (or control) ligand, and subsequent transfer of 50 μL aliquots to the assay plate was carried out with a CETUS Propette robot; the final concentration of the labeled ligand was 1 nM and the highest concentration of test compound was 1.0×10^−4 M. The competition occurred for two hours after which all wells were washed with a plate washer as before. Affinity purified horseradish peroxidase labeled goat anti-biotin antibody was diluted 1:3000 in TBS^+++/BSA and 125 μL were added to each well. After 30 minutes, the plates were washed and incubated with OPD/H2O2 substrate in 100 mM/L Citrate buffer, pH 5.0. The plate was read with a microtiter plate reader at a wavelength of 450 nm and when the maximum-binding control wells reached an absorbance of about 1.0, the final A450 were recorded for analysis. The data were analyzed using a macro written for use with the EXCELJ spreadsheet program. The mean, standard deviation, and % CV were determined for duplicate concentrations. The mean A450 values were normalized to the mean of four maximum-binding controls (no competitor added)(B-MAX). The normalized values were subjected to a four parameter curve fit algorithm [Rodbard et al., Int.

IC50 [1] [nM]	IC50 [2] [nM]	Compound
1200	0.34	O=C(O)C[C@H](NC(=O)CNC(=O)c1c[nH]c(=O)c(NC2=NCC(O)CN2)c1)c1cc(Br)cc(Cl)c1O (some centres unmarked) [Example 34]
340	0.14	O=C(O)C[C@H](NC(=O)CNC(=O)c1c[nH]c(=O)c(NC2=NCC(O)CN2)c1)c1cc(Br)cc(Br)c1 (some centres unmarked) [Example 35]
115	278	Cn1cc(NC2=NCC(O)CN2)cc1C(=O)NCC(=O)N[C@@H](CC(=O)O)c1cc(Cl)cc(Cl)c1O (some centres unmarked) [Example 38]
10100	3600	O=C(O)CC(NC(=O)CNC(=O)c1cc(N=C2NCCN2)c[nH]c1=O)c1cc(Cl)cc(Cl)c1O (stereo not drawn) [Example 23, N-[[5-(4,5,-dihydro-1H-imidazol-2-yl)amino]-1,2-dihydro-2-oxo-3-pyridinyl]-carbonyl]glycyl-3-(3,5-dichloro-2-hydroxyphenyl)-β-alanine, (trifluoroacetate) salt]
442	4.5	O=C(O)C[C@H](NC(=O)CNC(=O)c1cc(NC2=NCC(O)CN2)cs1)c1cc(Cl)cc(Cl)c1O (stereo partly drawn) [Example 12, (3S)-N-[[4-[(1,4,5,6-tetrahydro-5-hydroxy-2-pyrimidinyl)amino]-2-thienyl]carbonyl]glycyl-3-(3,5-dichloro-2-hydroxyphenyl)-β-alanine, trifluoroacetate salt]
1710	6.96	COc1ncc(N=C2NCCN2)cc1C(=O)NCC(=O)NC(CC(=O)O)c1cc(Cl)cc(Cl)c1O (stereo not drawn) [Example 22, N-[[(4,5,-dihydro-1H-imidazol-2-yl)amino]-2-methoxy-3-pyridinyl]carbonyl]glycyl-3-(3,5-dichloro-2-hydroxyphenyl)-β-alanine, (trifluoroacetate) salt]
3910	1870	O=C(O)CC(NC(=O)CNC(=O)c1cc(NC2=NCCN2)[nH]n1)c1cc(Cl)cc(Cl)c1O (stereo not drawn) [Example 25, N-[[5-[(4,5-dihydro-1H-imidazol-2-yl)amino]-1H-pyrazol-3-yl]carbonyl]-glycyl-3-(3,5-dichloro-2-hydroxyphenyl)-β-alanine, (trifluoroacetate) salt]
724	0.46	COc1ncc(C(=O)NCC(=O)NC(CC(=O)O)c2cc(Cl)cc(Cl)c2O)cc1NC1=NCCN1 (stereo not drawn) [Example 17, N-[[5-(4,5,-dihydro-1H-imidazol-2-yl)amino]-6-methoxy-3-pyridinyl]carbonyl]glycyl]-3-(3,5-dichloro-2-hydroxyphenyl)-β-alanine, bis(trifluoroacetate) salt]
581	0.74	O=C(O)CC(NC(=O)CNC(=O)c1cncc(NC2=NCCN2)c1)c1cc(Cl)cc(Br)c1O (centres unmarked) [Example 4]
1060	42.1	Nc1ncc(C(=O)NCC(=O)NC(CC(=O)O)c2cc(Cl)cc(Cl)c2O)cc1NC1=NCC(O)CN1 (centres unmarked) [Example 44]
1260	0.27	O=C(O)CC(NC(=O)CNC(=O)c1cncc(NC2=NCCCN2)c1)c1cc(Cl)cc(Cl)c1O (centres unmarked) [Example 6]
5950	3.1	O=C(O)C[C@H](NC(=O)CNC(=O)c1cc(NC2=NCC(O)CN2)[nH]c(=O)c1)c1cc(Cl)cc(Cl)c1O (some centres unmarked) [Example 42]
313	1.58	N=C(N)Nc1cncc(C(=O)NCC(=O)NC(CC(=O)O)c2cc(Cl)cc(Br)c2O)c1 (centres unmarked) [Example 1]
15800	91200	Cn1nc(C(=O)NCC(=O)NC(CC(=O)O)c2cc(Cl)cc(Cl)c2O)cc1NC1=NCCN1 (stereo not drawn) [Example 24, N-[[(4,5-dihydro-1H-imidazol-2-yl)amino]-1-methyl-1H-pyrazol-3yl]carbonyl]glycyl-3-(3,5-dichloro-2-hydroxyphenyl)-β-alanine, (trifluoroacetate) salt]
857	95.1	N=C(N)Nc1nc(C(=O)NCC(=O)NC(CC(=O)O)c2cccnc2)cs1 (centres unmarked) [Example 8]
482	0.26	COc1ncc(C(=O)NCC(=O)N[C@@H](CC(=O)O)c2cc(Cl)cc(Cl)c2O)cc1NC1=NCC(O)CN1 (some centres unmarked) [Example 27]
1040	25.4	Cc1sc(C(=O)NCC(=O)N[C@@H](CC(=O)O)c2cc(Cl)cc(Cl)c2O)cc1NC1=NCCN1 [Example 15, (3S)-N-[[4-(4,5,-dihydro-1H-imidazol-2-yl)amino]-5-methyl-2-thienyl]carbonyl]glycyl-3-(3,5-dichloro-2-hydroxyphenyl)-β-alanine, trifluoroacetate salt]
520	0.2	O=C(O)C[C@H](NC(=O)CNC(=O)c1c[nH]c(=O)c(NC2=NCC(O)CN2)c1)c1cc(Cl)cc(Br)c1O (some centres unmarked) [Example 33]
35400	10.2	O=C(O)C[C@@H](NC(=O)CNC(=O)c1c[nH]c(=O)c(NC2=NCC(O)CN2)c1)c1cc(Cl)cc(Cl)c1O (some centres unmarked) [Example 41]
772	12.4	Cc1sc(C(=O)NCC(=O)N[C@@H](CC(=O)O)c2cc(Cl)cc(Cl)c2O)cc1NC1=NCC(O)CN1 (stereo partly drawn) [Example 14, (3S)-N-[[5-methyl-4-[(1,4,5,6-tetrahydro-5-hydroxy-2-pyrimidinyl)amino]-2-thienyl]carbonyl]glycyl-3-(3,5-dichloro-2-hydroxyphenyl)-β-alanine, trifluoroacetate salt]
2460	1920	O=C(O)C[C@H](NC(=O)CNC(=O)c1cscc1CNC1=NCC(O)CN1)c1cc(Cl)cc(Cl)c1O (some centres unmarked) [Example 39]
49	2.1	O=C(O)CC(NC(=O)CNC(=O)c1cncc(NC2=NCC(O)CN2)c1)c1cc(Cl)cc(Br)c1O (centres unmarked) [Example 32]
